# Where a name gives a salt, the structure may show the parent alone.
# Legend:
# IgM antibody production = assay: Inhibition of IgM antibody production against sheep red blood cells (plaque-forming cells); type: in vivo, CDF 1 mice; settings: 3 days; for IgM plaque-forming cell count: ± S.D.
# Excerpt: Additionally, in accordance with the method of Jerne et al. (Jerne et al., Cell-bound Antibodies, pp. 109-122, 1963), the inventors examined the inhibitory action of spergualin on humoral immunity which is primarily the domain of the B-lymphocytes. The test procedure consisted of counting the number of spleen cells that were extracted from mice sensitized by antigenic sheep red blood cells and which formed immunoglobulin M (IgM) plaques. […] As summarized in Experiments 4 and 5 spergualin inhibited the production of IgG and IgE.
# CDF 1 mice (6-10 wk old, female) were immunized by intravenous injection of 1×10^8 sheep red blood cells. The mice were intraperitoneally administered varying doses (see Table 3 below) of the test compound for a period of 3 days starting from the day following the intravenous injection. Four days later, spleen cells were isolated from the mice and the number of IgM plaque-forming cells was counted by a known method (Yata et al.; Gan to Kagaku Ryoho (Cancer and Chemotherapy), vol. 2, pp. 903-908, 1975). The percentage inhibition of IgM antibody production was calculated by (1-B/A)×100 wherein A is the count for a control group (given physiological saline) and B, for the treated group.
# B-lymphocyte = assay: Inhibition of LPS-induced reaction of B-lymphocyte blastogenesis (3H-thymidine uptake); type: cell-based, BALB/c mice; settings: LPS 100 μg/ml; for ^3 H--thymidine uptake: ± S.D.
# Description: (§1) The present inventors conducted tests to evaluate the actions of spergualin against the reaction of lymphocyte blastogenesis in accordance with the method of Waithe et al. (Waithe et al., Handbook of Experimental Immunology, page 26.1, 1978).
# (§2) Spleen cells from BALB/c mice were distritubed among wells in a microplate so that each well contained 2×10^5 cells/0.2 ml. The compound was added to all wells but one, the latter being used as a control. Con A (5 μg/ml) was added to all the wells and the so prepared cell suspensions were cultivated in a 5% CO2 incubator for 72 hours at 37° C. Eight hours before the completion of the incubation, 1 μCi of ^3 H-thymidine was added to each well and the uptake of the thymidine by the cultured cells was measured with a liquid scintillation counter to estimate the progress of the reaction of T-lymphocyte blastogenesis. The percentage inhibition of the blastogenesis by the test compound was calculated by: […] wherein Adpm indicates the uptake count for the addition of only Con A and Bdpm, the count for the addition of both Con A and the test compound.
# The uptake of ^3 H-thymidine by B-cell was measured in accordance with the method used in Experiment 1, except that the inducer Con A was replaced by 100 μg/ml of LPS from E. coli. The percentage inhibition of blastogenesis by the test compound was also determined by the same method as used in Experiment 1.
# [1] = system: experimental aplastic anemia; assay: Effect on experimental aplastic anemia in mice; type: in vivo, C3H/HeN mice; settings: 10 days; for MST (mean survival time): ± S.D.
# Excerpt: Female C3H/HeN mice (Mls^c) of 10 week-old and female CBA mice (Mls^d) of 10 week-old were used. A group consisted of 10 mice. CBA lymph node cells (10^7) were i.v. into C3H/HeN mice after being subjected to 600 rads of whole-body X-irradiation, spergualin was given i.p. once a day for 10 days. The data is indicated as the mean survival time ±S.D.
# IgG antibody production = assay: Inhibition of IgG antibody production against sheep red blood cells (plaque-forming cells); type: in vivo, CDF 1 mice; settings: 50 mg/kg/day i.p.; for IgG plaque forming cell count: ± S.D., significant (P < 0.0001); for inhibition at 50 mg/kg/day: Mus musculus, Erythrocyte, ip, IgG
# Description: CDF 1 mice (6-10 wk old, female) were immunized by intravenous injection of 1×10^8 sheep red blood cells. The mice were intraperitoneally administered 50 mg/kg/day of the test compound for a period of 4 days starting on the day following the immunization or 3 days after that day. Seven days after the sensitization, spleen cells were isolated and the number of IgG plaque forming cells was counted by a known method (Yata et al., supra). As in Experiment 3, the percentage inhibition of IgG antibody production was determined.
# T-lymphocyte = assay: Inhibition of Con A-induced reaction of T-lymphocyte blastogenesis (3H-thymidine uptake, BALB/c spleen cells); type: cell-based, BALB/c mice; settings: Con A 5 μg/ml, 72 h; for ^3 H--thymidine uptake: ± S.D.
# Description: as §1, §2
# Allokiller T-lymphocyte = assay: Inhibition of allokiller T-lymphocyte genesis (51Cr release from P815 mastocytoma); type: in vivo, C 57 BL/b mice
# Description: 3×10^7 P815 mastocytoma cells were administered intraperitoneally to C 57 BL/b mice (10 wk old). Twelve days later, spleen cels were isolated and used as effector cells (E). Target cells (T) which were ^51 Cr labelled P815 mastocytoma cells were challenged by the effector cells at varying E/T ratios and the allokiller activity was assayed in terms of the percentage release ^51 Cr. Spergualin was administered for nine consecutive days starting on the day following the transplantation or a single administration was made on the 9th day.
# [2] = Exp. 1, 3.13 mg/kg i.p. once a day
# [3] = Exp. 2, 6.25 mg/kg i.p. once a day
# [4] = Exp. 2, 25.0 mg/kg i.p. once a day
# [5] = Exp. 2, 50.0 mg/kg i.p. once a day
structure (smiles),measurement,setting,value
N=C(N)NCCCCC(O)CC(=O)NC(O)C(=O)NCCCCNCCCN (centres unmarked) [spergualin (trihydrochloride)],IgM plaque-forming cell count,IgM antibody production; 1 mg/kg/day i.p.,"1,304 ± 188 cells/10^6 spleen cells × 100"
same,IgM plaque-forming cell count,"IgM antibody production; 5 mg/kg/day i.p., significant (P < 0.001)",632 ± 87 cells/10^6 spleen cells × 100
same,IgM plaque-forming cell count,"IgM antibody production; 10 mg/kg/day i.p., significant (P < 0.001)",392 ± 87 cells/10^6 spleen cells × 100
same,IgM plaque-forming cell count,"IgM antibody production; 25 mg/kg/day i.p., significant (P < 0.001)",149 ± 53 cells/10^6 spleen cells × 100
same,IgM plaque-forming cell count,"IgM antibody production; 50 mg/kg/day i.p., significant (P < 0.001)",64 ± 24 cells/10^6 spleen cells × 100
same,inhibition at 1 mg/kg/day,"IgM antibody production; Mus musculus, Erythrocyte, ip, 72 h, IgM, 1 mg/kg/day i.p.",10.3%
same,inhibition at 5 mg/kg/day,"IgM antibody production; Mus musculus, Erythrocyte, ip, 72 h, IgM, 5 mg/kg/day i.p.",56.5%
same,inhibition at 10 mg/kg/day,"IgM antibody production; Mus musculus, Erythrocyte, ip, 72 h, IgM, 10 mg/kg/day i.p.",73%
same,inhibition at 25 mg/kg/day,"IgM antibody production; Mus musculus, Erythrocyte, ip, 72 h, IgM, 25 mg/kg/day i.p.",89.7%
same,inhibition at 50 mg/kg/day,"IgM antibody production; Mus musculus, Erythrocyte, ip, 72 h, IgM, 50 mg/kg/day i.p.",95.5%
same,^3 H--thymidine uptake,B-lymphocyte; 10 μg/ml,"38,842 ± 21,573 dpm"
same,^3 H--thymidine uptake,B-lymphocyte; 100 μg/ml,396 ± 216 dpm
same,inhibition at 10 µg/mL,"B-lymphocyte; Mus musculus, 10 μg/ml",83.4%
same,inhibition at 100 µg/mL,"B-lymphocyte; Mus musculus, 100 μg/ml",99.8%
same,"30-day survivors, Survivors/Total",[1]; [2],2/10
same,MST (mean survival time),[1]; [2],16.3 ± 8.1 days
same,"30-day survivors, Survivors/Total","[1]; Exp. 1, 6.25 mg/kg i.p. once a day",6/10
same,MST (mean survival time),"[1]; Exp. 1, 6.25 mg/kg i.p. once a day, P < 0.05",22.6 ± 9.7 days
same,"30-day survivors, Survivors/Total","[1]; Exp. 1, 12.5 mg/kg i.p. once a day",10/10
same,MST (mean survival time),"[1]; Exp. 1, 12.5 mg/kg i.p. once a day, P < 0.01",30.0 ± 0.0 days
same,"30-day survivors, Survivors/Total","[1]; Exp. 1, 25.0 mg/kg i.p. once a day",6/10
same,MST (mean survival time),"[1]; Exp. 1, 25.0 mg/kg i.p. once a day, P < 0.05",23.6 ± 8.6 days
same,"30-day survivors, Survivors/Total",[1]; [3],3/10
same,MST (mean survival time),[1]; [3],20.2 ± 8.4 days
same,"30-day survivors, Survivors/Total","[1]; Exp. 2, 12.5 mg/kg i.p. once a day",6/10
same,MST (mean survival time),"[1]; Exp. 2, 12.5 mg/kg i.p. once a day, P < 0.05",23.0 ± 9.4 days
same,"30-day survivors, Survivors/Total",[1]; [4],4/10
same,MST (mean survival time),[1]; [4],20.7 ± 8.5 days
same,"30-day survivors, Survivors/Total",[1]; [5],0/10
same,MST (mean survival time),[1]; [5],12.6 ± 3.9 days
same,IgG plaque forming cell count,IgG antibody production; days 1-4 after sensitization,17 ± 16 cells/10^6 spleen cells
same,IgG plaque forming cell count,IgG antibody production; days 3-6 after sensitization,19 ± 15 cells/10^6 spleen cells
same,inhibition at 50 mg/kg/day,IgG antibody production; days 1-4 after sensitization,96.7%
same,inhibition at 50 mg/kg/day,IgG antibody production; days 3-6 after sensitization,96.3%
same,^3 H--thymidine uptake,T-lymphocyte; 10 μg/ml,"30,214 ± 25,033 dpm"
same,^3 H--thymidine uptake,T-lymphocyte; 100 μg/ml,788 ± 182 dpm
same,inhibition at 10 µg/mL,"T-lymphocyte; Mus musculus, T-lymphocyte, 10 μg/ml",76.7%
same,inhibition at 100 µg/mL,"T-lymphocyte; Mus musculus, T-lymphocyte, 100 μg/ml",99.4%
same,Percent release of ^51 Cr,"Allokiller T-lymphocyte; 5 mg/kg/day, days 1-9 after transplantation, E/T ratio 5",6%
same,Percent release of ^51 Cr,"Allokiller T-lymphocyte; 5 mg/kg/day, days 1-9 after transplantation, E/T ratio 10",8%
same,Percent release of ^51 Cr,"Allokiller T-lymphocyte; 5 mg/kg/day, days 1-9 after transplantation, E/T ratio 20",17%
same,Percent release of ^51 Cr,"Allokiller T-lymphocyte; 50 mg/kg, single administration day 9, E/T ratio 5",21%
same,Percent release of ^51 Cr,"Allokiller T-lymphocyte; 50 mg/kg, single administration day 9, E/T ratio 10",30%
same,Percent release of ^51 Cr,"Allokiller T-lymphocyte; 50 mg/kg, single administration day 9, E/T ratio 20",51%
same,Percent release of ^51 Cr,"Allokiller T-lymphocyte; 50 mg/kg/day, days 1-9 after transplantation, E/T ratio 5",0%
same,Percent release of ^51 Cr,"Allokiller T-lymphocyte; 50 mg/kg/day, days 1-9 after transplantation, E/T ratio 10",0%
same,Percent release of ^51 Cr,"Allokiller T-lymphocyte; 50 mg/kg/day, days 1-9 after transplantation, E/T ratio 20",1%
